Laboratory results published in paper PMC12947280, “An Antifungal with a Novel Mechanism of Action Discovered via Resistance Gene-Guided Genome Mining” (ACS Central Science, 2026).
Read-outs that look alike come from different tables or passages of the source.

What was measured:
[1] = physchem; settings: aqueous with cosolvent or surfactant or cyclodextrin, kinetic from dmso stock
[2] = tested on: Scedosporium prolificans ATCC 11274; assay: Antifungal screening, broth microdilution MIC; type: cell-based; settings: for MIC: Lomentospora prolificans, ATCC11274, Scedosporium prolificans ATCC 11274
Procedure: (§1) Antifungal screening of 1
(§2) Antifungal screening was performed by Micromyx, LLC (Kalamazoo, Michigan, USA). Test organisms were either reference strains from the American Type Culture Collection (ATCC; Manassas, VA), the Centers for Disease Control and Prevention (CDC; Atlanta, GA), or clinical isolates from the Micromyx (MMX) collection. Upon receipt at Micromyx, the isolates were streaked under suitable conditions onto agar medium appropriate to each organism. The yeast isolates were incubated for 24 hr at 35 °C and the fungi were incubated for 7 to 13 days at 35 °C, as appropriate. Colonies harvested from these growth plates were resuspended in the appropriate medium containing a cryoprotectant. Aliquots of each suspension were then frozen […]
(§3) Prior to testing, the yeast isolates were streaked from frozen vials onto Sabouraud Dextrose Agar (SAB; Becton Dickenson [BD]/BBL; Sparks, MD, Lot No. 2228660) and were incubated at 35°C for 24 hr. Additional fungal isolates were streaked from frozen vials onto potato dextrose agar (BD/BBL; Sparks, MD, Lot No. 2046481) and incubated under optimal conditions for […]
(§4) All MIC measurements were performed in RPMI1640 from Hyclone Laboratories (Logan, UT;
(§5) Cat. No. SH3001104; Lot No. AC10257966A) buffered with MOPS to pH-7 from Millipore […]
(§6) MIC values were determined using a broth microdilution procedure described by CLSI. 5,6.
(§7) Automated liquid handlers (Multidrop 384, Labsystems, Helsinki, Finland; Biomek 3000 and […]
(§8) Biomek FX, Beckman Coulter Fullerton CA) were used to conduct serial dilutions and liquid […]
(§9) Solutions of 1 were added in an 11 point 2x serial dilution in DMSO with a maximum tested concentration of 32 μg/ml in the culture medium. Drug solution was added at 1% v/v into 200 μl […]
(§10) A standardized inoculum of each test organism was prepared in appropriate media per CLSI methods.5,6 The plates were then inoculated with 10 µL of the diluted inoculum using the Biomek 3000 from low to high drug concentration, resulting in a final concentration of approximately 0.5 to 2.5 x 10^3 CFU/mL for yeast and 0.2 to 2.5 x 10^4 CFU/mL for the other fungi. An un-inoculated plate was incubated for the purpose of assessing solubility of the drug […]
(§11) The plates were stacked 3 to 4 high, covered with a sterile lid on the top plate, and incubated aerobically at 35 °C for 24, 48, and 72 h. For yeast, both the MIC based on complete inhibition and 50% inhibition were reported at 24 and 48 h. For other fungal isolates, the MIC values were recorded at 24 and 48 hr and were based on complete inhibition and 50% inhibition.
(§12) Intact protein LCMS analysis
(§13) 10 μM of recombinant S. cerevisiae ALS was incubated with 10 μM compound 1 in buffer (50 mM Tris pH 7.5, 100 mM KCl, 10 uM FAD, 1 mM TPP, 10 mM MgCl2 (with 2.5% DMSO from compound)) at 22 °C for 30 min. Unreacted 1 was removed by passing the reaction mixture through a 30 kDa MWCO filter (Millipore). The collected protein was then denatured and reduced by incubation with 6 M urea and 10 mM DTT at 37 °C for 1 h followed by 20 mM iodoacetamide alkylation for 30 min in dark. This reaction mixture then underwent buffer exchange into 100 mM Tris-HCl pH 8.0 and 10 mM CaCl2 buffer using a 30 kDa MWCO filter.
(§14) The protein was then incubated with sequencing grade chymotrypsin (Promega) (15:1,w/w) for […]
(§15) After digestion, the peptide mixture was immediately analysed by LC-MS/MS using a Waters I-class UPLC equipped with an ACQUITY UPLC BEH C18 column (2.1x50 mm, 1.7 µm, Waters) at 50 °C coupled to a Waters Synapt G2Si MS. The sample was injected and subjected to an LC gradient starting from 0.5% mobile phase B (ACN with 0.1% formic acid) for 5 min with linear increase to 40% B over 35 min. Mobile phase A was 0.1% formic acid water. Flow rate was maintained at 0.3 ml/min. MS/MS data was acquired in positive ionization mode with data dependent MS/MS acquisition. Peptide mapping was performed with PEAKs Studio 8.0 (Bioinformatics Solutions Inc.) followed by manual review to identify peptides putatively modified by covalent addition of 1. […]

[3] = tested on: Fusarium oxysporum ATCC 48112; assay: Antifungal screening, broth microdilution MIC; type: cell-based; settings: for MIC: ATCC48112, Fusarium oxysporum ATCC 48112
Procedure: as §1, §2, §3, §4, §5, §6, §7, §8, §9, §10, §11, §12, §13, §14, §15

[4] = tested on: Aspergillus flavus ATCC 204304; assay: Antifungal screening, broth microdilution MIC; type: cell-based; settings: for MIC: ATCC204304, Aspergillus flavus ATCC 204304
Procedure: as §1, §2, §3, §4, §5, §6, §7, §8, §9, §10, §11, §12, §13, §14, §15

[5] = tested on: Aspergillus fumigatus; assay: Antifungal screening, broth microdilution MIC; type: cell-based; settings: for MIC: Aspergillus fumigatus
Procedure: as §1, §2, §3, §4, §5, §6, §7, §8, §9, §10, §11, §12, §13, §14, §15

[6] = 24 hr, read-out: MIC 100% growth inhibition
[7] = 24 hr, read-out: MIC >50% growth inhibition
[8] = 48 hr, read-out: MIC 100% growth inhibition
[9] = 48 hr, read-out: MIC >50% growth inhibition

CCCC1C(C)=CC2CC=CC3(C)C2C1C(=O)C31C(=O)NC(CCCO)C1=O (stereo not shown) [compound 1]
8 µg/mL: MIC [2, 6] | MIC ([5]; 24 h, read-out: MIC 100% growth inhibition, Aspergillus fumigatus CDC 0732 (azole resistant), 24 hr) | MIC ([5]; 24 h, read-out: MIC 100% growth inhibition, Aspergillus fumigatus CDC 0733 (azole resistant), 24 hr) | MIC ([5]; 24 h, read-out: MIC 100% growth inhibition, Aspergillus fumigatus CDC 0734 (azole resistant), 24 hr) | MIC ([5]; 24 h, read-out: MIC 100% growth inhibition, Aspergillus fumigatus CDC 0735 (azole resistant), 24 hr) | MIC ([5]; 24 h, read-out: MIC 100% growth inhibition, Aspergillus fumigatus CDC 0736 (azole susceptible), 24 hr)
> 32: MIC (Table S5) ([3]; Fusarium oxysporum, species summary) | MIC (Table S5) ([4]; Aspergillus flavus, species summary)
260 µM: solubility kinetic [1]
> 32 µg/mL: MIC [2, 8] | MIC [2, 9] | MIC [3, 6] | MIC [3, 7] | MIC [3, 8] | MIC [3, 9] | MIC [4, 6] | MIC [4, 7] | MIC [4, 8] | MIC [4, 9] | MIC ([5]; 48 h, read-out: MIC 100% growth inhibition, Aspergillus fumigatus ATCC MYA-3626, 48 hr) | MIC ([5]; 48 h, read-out: MIC 100% growth inhibition, Aspergillus fumigatus CDC 0731 (azole resistant), 48 hr) | MIC ([5]; 48 h, read-out: MIC 100% growth inhibition, Aspergillus fumigatus CDC 0732 (azole resistant), 48 hr) | MIC ([5]; 48 h, read-out: MIC 100% growth inhibition, Aspergillus fumigatus CDC 0733 (azole resistant), 48 hr) | MIC ([5]; 48 h, read-out: MIC 100% growth inhibition, Aspergillus fumigatus CDC 0734 (azole resistant), 48 hr) | MIC ([5]; 48 h, read-out: MIC 100% growth inhibition, Aspergillus fumigatus CDC 0735 (azole resistant), 48 hr) | MIC ([5]; 48 h, read-out: MIC 100% growth inhibition, Aspergillus fumigatus CDC 0736 (azole susceptible), 48 hr) | MIC ([5]; 48 h, read-out: MIC 100% growth inhibition, Aspergillus fumigatus CDC 0737 (azole susceptible), 48 hr) | MIC ([5]; 48 h, read-out: MIC 100% growth inhibition, Aspergillus fumigatus CDC 0738 (azole susceptible), 48 hr) | MIC ([5]; 48 h, read-out: MIC >50% growth inhibition, Aspergillus fumigatus ATCC MYA-3626, 48 hr) | MIC ([5]; 48 h, read-out: MIC >50% growth inhibition, Aspergillus fumigatus CDC 0731 (azole resistant), 48 hr) | MIC ([5]; 48 h, read-out: MIC >50% growth inhibition, Aspergillus fumigatus CDC 0732 (azole resistant), 48 hr) | MIC ([5]; 48 h, read-out: MIC >50% growth inhibition, Aspergillus fumigatus CDC 0733 (azole resistant), 48 hr) | MIC ([5]; 48 h, read-out: MIC >50% growth inhibition, Aspergillus fumigatus CDC 0734 (azole resistant), 48 hr)
1 µg/mL: MIC ([5]; 24 h, read-out: MIC >50% growth inhibition, Aspergillus fumigatus CDC 0738 (azole susceptible), 24 hr) | MIC ([5]; 24 h, read-out: MIC >50% growth inhibition, Aspergillus fumigatus CDC 0739 (azole susceptible), 24 hr) | MIC ([5]; 24 h, read-out: MIC >50% growth inhibition, Aspergillus fumigatus CDC 0740 (azole susceptible), 24 hr)
16 µg/mL: MIC ([5]; 24 h, read-out: MIC 100% growth inhibition, Aspergillus fumigatus CDC 0731 (azole resistant), 24 hr) | MIC ([5]; 24 h, read-out: MIC 100% growth inhibition, Aspergillus fumigatus CDC 0737 (azole susceptible), 24 hr) | MIC ([5]; 48 h, read-out: MIC >50% growth inhibition, Aspergillus fumigatus CDC 0736 (azole susceptible), 48 hr) | MIC ([5]; 48 h, read-out: MIC >50% growth inhibition, Aspergillus fumigatus CDC 0737 (azole susceptible), 48 hr) | MIC ([5]; 48 h, read-out: MIC >50% growth inhibition, Aspergillus fumigatus CDC 0739 (azole susceptible), 48 hr) | MIC ([5]; 48 h, read-out: MIC >50% growth inhibition, Aspergillus fumigatus CDC 0740 (azole susceptible), 48 hr)
2 µg/mL: MIC [2, 7] | MIC ([5]; 24 h, read-out: MIC 100% growth inhibition, Aspergillus fumigatus CDC 0738 (azole susceptible), 24 hr) | MIC ([5]; 24 h, read-out: MIC >50% growth inhibition, Aspergillus fumigatus CDC 0731 (azole resistant), 24 hr) | MIC ([5]; 24 h, read-out: MIC >50% growth inhibition, Aspergillus fumigatus CDC 0732 (azole resistant), 24 hr) | MIC ([5]; 24 h, read-out: MIC >50% growth inhibition, Aspergillus fumigatus CDC 0737 (azole susceptible), 24 hr)
2-16: MIC (Table S5) ([5]; A. fumigatus, species summary)
4 µg/mL: MIC ([5]; 24 h, read-out: MIC 100% growth inhibition, Aspergillus fumigatus ATCC MYA-3626, 24 hr) | MIC ([5]; 24 h, read-out: MIC 100% growth inhibition, Aspergillus fumigatus CDC 0739 (azole susceptible), 24 hr) | MIC ([5]; 24 h, read-out: MIC 100% growth inhibition, Aspergillus fumigatus CDC 0740 (azole susceptible), 24 hr) | MIC ([5]; 24 h, read-out: MIC >50% growth inhibition, Aspergillus fumigatus ATCC MYA-3626, 24 hr) | MIC ([5]; 24 h, read-out: MIC >50% growth inhibition, Aspergillus fumigatus CDC 0733 (azole resistant), 24 hr) | MIC ([5]; 24 h, read-out: MIC >50% growth inhibition, Aspergillus fumigatus CDC 0734 (azole resistant), 24 hr) | MIC ([5]; 24 h, read-out: MIC >50% growth inhibition, Aspergillus fumigatus CDC 0735 (azole resistant), 24 hr) | MIC ([5]; 24 h, read-out: MIC >50% growth inhibition, Aspergillus fumigatus CDC 0736 (azole susceptible), 24 hr)
8: MIC (Table S5) ([2]; Scedosporium prolificans, species summary)
32 µg/mL: MIC ([5]; 48 h, read-out: MIC 100% growth inhibition, Aspergillus fumigatus CDC 0739 (azole susceptible), 48 hr) | MIC ([5]; 48 h, read-out: MIC 100% growth inhibition, Aspergillus fumigatus CDC 0740 (azole susceptible), 48 hr) | MIC ([5]; 48 h, read-out: MIC >50% growth inhibition, Aspergillus fumigatus CDC 0735 (azole resistant), 48 hr) | MIC ([5]; 48 h, read-out: MIC >50% growth inhibition, Aspergillus fumigatus CDC 0738 (azole susceptible), 48 hr)
